{
  "source": "patent US12102709B2",
  "about": "“Anti-obesity agent, anti-dementia agent, deodorant, anti-aging agent, anti-glycation agent, anti-type I allergy agent, hypotensive agent, flavor improving agent, muscle enhancing agent, and bone metabolism improving agent” (Mitsui Sugar Co., Ltd., priority 2018, dated 2024)",
  "key": {"[1]": {"test": "AGEs crosslinking cutting test", "assay_type": "biochemical", "conditions": "PTB 5 mmol/L", "procedure": "Next, according to the AGEs crosslinking cutting test, the AGEs decomposition activity of the bagasse decomposition extract (the extract A) was evaluated. […] PPD) having an α-diketone structure was used as a model substrate, which is a known method (for example, Glycative Stress Research 2015, Vol. 2 (No. 2), pp. 58-66). The extract A as a bagasse decomposition extract was dissolved in distill water to a concentration of 20 mg/mL to prepare a test sample. The above prepared sample was added to a reaction solution containing a 0.16 mol/L phosphate buffer solution (pH 7.4), and a […] PPD composition to a concentration of 1/2 (10 mg/mL) and incubated at 37° C. for 8 hours. […] The amount of benzoic acid in the supernatant was analyzed through reversed phase HPLC. The amount of benzoic acid in the reaction solution was determined by subtracting the amount of benzoic acid in the sample that was separately measured. Since 1 mol of PPD produced 1 mol of benzoic acid, the crosslinking cutting rate was calculated according to the following formula. […] Then, the reaction solution was centrifuged at 20° C. and 3,000×g, for 10 minutes, and the amount of benzoic acid in the supernatant was analyzed through reversed phase HPLC. The amount of benzoic acid in the reaction solution was determined by subtracting the amount of benzoic acid in the sample that was separately measured. […]"}, "3T3-L1 cells": {"system": "3T3-L1 cells", "test": "3T3-L1 cell lipid accumulation inhibition test", "assay_type": "cell-based, mouse", "conditions": "berberine chloride final concentration 1 μg/mL; untreated control = 100%", "procedure": "The extract A was dissolved in water to prepare 50 mg/mL of a test solution stock solution. The test solution stock solution was diluted with a DMEM culture medium to prepare a test solution with a specimen concentration of 2,000 μg/mL.\n3T3-L1 cells (National Institute of Biomedical Innovation, Health and Nutrition) as mouse adipose progenitor cells were seeded on a 24-well plate, and cultured in a DMEM culture medium containing a newborn calf serum (10 vol %, with respect to a total amount of the culture medium) and a penicillin-streptomycin solution (1 vol %, with respect to a total amount of the culture medium) for 4 days. […]\nAfter the lipid droplets were observed, a pigment extract solution contained in the Adipogenesis Assay Kit was added to samples of Example a1, Comparative Example a1-1, and Positive Control a1-1, and Oil Red O incorporated into the lipid droplets was extracted. The absorbance of the extracted Oil Red O at 520 nm was measured using a microplate reader (SpectraMax M2e, commercially available from Molecular Devices, LLC.).\nThe lipid accumulation rate was calculated from the absorbance of respective samples according to the following formula. […]"}, "C2C12 cells [2]": {"system": "C2C12 cells", "test": "Mitochondrial activation test (amount of mitochondria per cell)", "assay_type": "cell-based, mouse", "conditions": "Table 24; positive control; 48 hours; Comparative Example i1-4 = 100%", "procedure": "(Cells) • Mouse Myoblasts C2C12 Cells (ATCC, CRL-1772) (Culture Mediums) • Growth culture medium composition: DMEM culture medium, 10% FBS, antibiotics added • Differentiation culture medium composition: DMEM culture medium, 0.5% FBS, antibiotics added C2C12 cells were cultivated using a growth culture medium in a T-75 flask (75 cm^2 U-shaped canted neck cell culture flask, commercially available from Corning Co., Ltd.). The T-75 flask was put into a CO2 incubator (5% CO2, 37° C., wet) and the C2C12 cells were cultured. The culture medium was replaced every other day, and when an 80% confluence was reached, the cells were collected and used for the test. Here, in the following test, regarding a well plate for culturing C2C12 cells, a plate coated with gelatin according to the following coating method was used. […] Then, after the culture supernatant was removed, a differentiation culture medium containing 5 μg/mL Hoechst (reagent for nuclear staining) and 500 nM MitoTracker (mitochondria staining reagent) was added to the well plate, and the fluorescence intensity was measured by the same method as in Test Example i1-1. The amount of mitochondria per cell was calculated by dividing the fluorescence intensity of the differentiation culture medium containing MitoTracker by the fluorescence intensity of the differentiation culture medium containing Hoechst. […]"}, "C2C12 cells [3]": {"system": "C2C12 cells", "test": "Mitochondrial activation test (activity per cell)", "assay_type": "cell-based, mouse", "conditions": "resveratrol 50 μM, 1% (v/v) ethanol; 48 hours; Comparative Example i1-2 = 100%", "procedure": "(Cells) • Mouse Myoblasts C2C12 Cells (ATCC, CRL-1772) (Culture Mediums) • Growth culture medium composition: DMEM culture medium, 10% FBS, antibiotics added • Differentiation culture medium composition: DMEM culture medium, 0.5% FBS, antibiotics added C2C12 cells were cultivated using a growth culture medium in a T-75 flask (75 cm^2 U-shaped canted neck cell culture flask, commercially available from Corning Co., Ltd.). The T-75 flask was put into a CO2 incubator (5% CO2, 37° C., wet) and the C2C12 cells were cultured. The culture medium was replaced every other day, and when an 80% confluence was reached, the cells were collected and used for the test. […] Pre-cultured cells were seeded in a 96-well plate for fluorescence observation (optical bottom plate, commercially available from Nunc) at 4×10^4 cells/0.1 mL/well using a growth culture medium. […] Then, the fluorescence intensity was measured with a fluorescent plate reader. The mitochondrial activity per cell was calculated by dividing the fluorescence intensity of the differentiation culture medium containing rhodamine by the fluorescence intensity of the differentiation culture medium containing Hoechst. […] In addition, the relative values (%) in the test samples of Examples i1-4 to i1-6 and Positive Control it when the mitochondrial activity in the test sample of Comparative Example i1-2 was set as 100% were determined."}, "[4]": {"system": "human osteoclast precursor cells", "test": "Osteoclast differentiation inhibition test 2 (proportion of mononuclear cells)", "assay_type": "cell-based", "conditions": "7 days", "procedure": "It is known that, when osteoclasts mature, cells fuse each other and become multinucleated. Therefore, the proportion of mononuclear cells of osteoclasts was measured, and an osteoclast differentiation inhibition effect was confirmed. Under the same culture conditions as in Example j2-1, human osteoclast precursor cells were cultured using a culture medium containing the extract A with a concentration shown in Table 27 (Example j3-1), a culture medium containing no extract (Comparative Example j3-1), or a culture medium containing melatonin with a concentration shown in Table 27 (Positive Controls j3-1 to j3-2) as positive controls. The proportion of mononuclear cells (%) was calculated by dividing the number of mononuclear cells in the field of view of the microscope by the total number of cells in the field of view."}, "[5]": {"system": "human osteoclast precursor cells", "test": "Osteoclast differentiation inhibition test 1 (TRAP staining)", "assay_type": "cell-based", "conditions": "1,000 μM melatonin; 7 days; FIG. 11", "procedure": "(Cells) • Human osteoclast precursor cells (commercially available from Cosmo Bio Co., Ltd. PT-267 Lot. RBW-F-OSH-HBV) Using the above culture medium, 250 μg/mL of a solution containing the extract A was prepared, and this was used as a test solution (Example j2-1). Human osteoclast precursor cells were seeded in a 96-well culture plate at about 0.3×10^5 cells/50 μl/well. A test solution was added thereto at 50 μL/well and culturing was performed under conditions of 37° C. and 5% CO2 for 7 days. The cultured cells were stained with TRAP using a TRAP staining kit, and observed under a microscope. In the same manner, the same test was performed on a culture medium to which no test solution was added (Comparative Example j2-1) and a culture medium containing 1,000 μM melatonin (Positive Control j2) as a positive control."}},
  "data": [
    {"smiles": "O=C(C[n+]1ccsc1)c1ccccc1.[Br-]", "note": "[PTB, N-phenacylthiazoliumbromide]", "values": [
      {"measurement": "Crosslinking cutting rate", "setting": "[1]; Test Example e2", "value": 20.1, "unit": "%"},
      {"measurement": "Crosslinking cutting rate", "setting": "[1]; Test Example e4", "value": 22.4, "unit": "%"}
    ]},
    {"smiles": "COc1ccc2cc3[n+](cc2c1OC)CCc1cc2c(cc1-3)OCO2", "note": "[Positive Control a1-1, berberine chloride]", "values": [
      {"measurement": "Lipid accumulation rate", "setting": "3T3-L1 cells", "value": "19±1.0", "unit": "%"}
    ]},
    {"smiles": "Oc1ccc(C=Cc2cc(O)cc(O)c2)cc1", "note": "[Positive Control i1-1, resveratrol]", "values": [
      {"measurement": "Amount of mitochondria per cell (relative value, %)", "setting": "C2C12 cells [2]", "value": "178.4 ± 9.6", "unit": "%"},
      {"measurement": "Mitochondrial activity per cell (relative value, %)", "setting": "C2C12 cells [3]", "value": "178.4 ± 9.6", "unit": "%"}
    ]},
    {"smiles": "COc1ccc2[nH]cc(CCNC(C)=O)c2c1", "note": "[Positive Control j3-1, melatonin]", "values": [
      {"measurement": "Proportion of mononuclear cells (%) (average N = 3)", "setting": "[4]; melatonin 500 μM", "value": 88, "unit": "%"},
      {"measurement": "Proportion of mononuclear cells (%) (average N = 3)", "setting": "[4]; melatonin 1,000 μM", "value": 100, "unit": "%"},
      {"measurement": "Microscopic observation of TRAP-stained osteoclasts", "setting": "[5]", "value": "a decrease in the number of osteoclasts was also observed"}
    ]}
  ]
}
